Measured values from PubChem BioAssay AID1224920 (Broad Institute, 2016).
The source made the active and inactive calls.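 How the source made its calls: active means IC50 no higher than ten times the top tested dose; inconclusive means flat fit with 30 to 70% inhibition, or poor fit; inactive means IC50 above ten times the top dose.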

Experiment: growth modulation of Clostridium difficile isolate – OD600, 9-point, retest, dose response (AID 1224920);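 further: plate controls were DMSO for no effect and levofloxacin control for full effect; inhibitors lower culture turbidity so OD600 falls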
Conditions: Clostridium difficile clinical isolate growth, OD600, 24 h

COc1ccc2c3c(n(C)c2c1)[C@H](CO)NCC31CN(Cc2ccc(F)cc2)C1
activity change, negative = inhibition (at 60 µM (top of the series)): 7.43% (inactive)

CN1c2ccc(-c3cccc(F)c3)cc2[C@@H]2[C@@H](CCN2C(=O)C2CCCC2)[C@@H]1CO
activity change, negative = inhibition (at 120 µM (top of the series)): 34.7% (inactive)

COc1ccc2c3c(n(C)c2c1)[C@@H](CO)N(C(=O)c1ccncc1)CC31CN(C)C1
activity change, negative = inhibition (at 120 µM (top of the series)): 3.53% (inactive)

O=C(Nc1ccccc1F)N1C[C@@H]2N[C@H](C1)C2c1ccc(-c2ccccc2)cc1 (some centres not stated)
activity change, negative = inhibition (at 120 µM (top of the series)): 36.7% (inactive)

COc1ccc2c3c(n(C)c2c1)[C@H](CO)N(C(=O)Cc1ccccc1)CC31CCN(C)CC1
activity change, negative = inhibition (at 120 µM (top of the series)): 8.89% (inactive)

CN(C)C(=O)c1cccc(-c2ccc([C@@H]3[C@H]4CN(C(=O)C5CCCCC5)CC(=O)N4[C@H]3CO)cc2)c1
activity change, negative = inhibition (at 120 µM (top of the series)): -5.65% (inactive)

CC(=O)NC[C@@H]1[C@H](c2ccc(-c3cccc(F)c3)cc2)[C@@H](CO)N1C(C)=O
activity change, negative = inhibition (at 120 µM (top of the series)): -11.6% (inactive)

C/C=C/c1ccc([C@H]2[C@H](CO)N(C(=O)CC)[C@H]2CNC(=O)CC)cc1
activity change, negative = inhibition (at 135 µM (top of the series)): -9.32% (inactive)

CN1c2ccc(Br)cc2[C@@H]2[C@@H](CCN2C(=O)Nc2ccc(F)cc2)[C@H]1CO
activity change, negative = inhibition (at 120 µM (top of the series)): 127% (inactive)

OC[C@H]1[C@H](c2ccc(-c3ccccc3)cc2)[C@@H]2CN(CCC(F)(F)F)CCCCN12
activity change, negative = inhibition (at 60 µM (top of the series)): 31.7% (inactive)

Cc1ccccc1S(=O)(=O)N1CC[C@H]2[C@H](CO)Nc3ccc(-c4ccc(F)cc4)cc3[C@H]21
activity change, negative = inhibition (at 60 µM (top of the series)): 13.1% (inactive)

Cc1ccccc1-c1ccc([C@H]2[C@@H](CO)N3CCCCN(S(=O)(=O)c4ccc(F)cc4)C[C@H]23)cc1
activity change, negative = inhibition (at 120 µM (top of the series)): 3.42% (inactive)

O=C(Nc1ccc(F)cc1)N1CCCCN2[C@H](CO)[C@@H](c3ccc(-c4cccc(F)c4)cc3)[C@@H]2C1
activity change, negative = inhibition (at 120 µM (top of the series)): 48.5% (inactive)

Cc1ccccc1-c1ccc(C2[C@@H]3CN(C(=O)C4CCCC4)C[C@H]2N3)cc1 (some centres not stated)
activity change, negative = inhibition (at 60 µM (top of the series)): 34.2% (inactive)

CN1c2ccc(-c3cccc(F)c3)cc2[C@H]2[C@H](CCN2C(=O)C2CCCC2)[C@H]1CO
activity change, negative = inhibition (at 120 µM (top of the series)): 40.6% (inactive)

COc1ccc(-c2ccccc2[C@@H]2[C@@H](C#N)N(C(=O)NC3CCCCC3)[C@H]2CO)cc1
activity change, negative = inhibition (at 120 µM (top of the series)): 9.48% (inactive)

N#C[C@@H]1[C@@H](c2ccccc2-c2ccc(F)cc2)[C@H](CO)N1C(=O)NC1CCCC1
activity change, negative = inhibition (at 135 µM (top of the series)): 14% (inactive)

O=C(c1ccc2c(c1)OCO2)N1C[C@@H]2N[C@H](C1)C2c1ccc(-c2ccccc2F)cc1 (some centres not stated)
activity change, negative = inhibition (at 68 µM (top of the series)): 31.1% (inactive)

O=S(=O)(c1ccc(F)cc1)N1CCCCN2[C@@H](CO)[C@@H](c3ccc(-c4ccccc4)cc3)[C@@H]2C1
activity change, negative = inhibition (at 120 µM (top of the series)): 0.278% (inactive)

COc1ccc2c3c(n(C)c2c1)[C@H](CO)N(C(=O)c1cccnc1)CC31CCN(C(=O)c2cccnc2)CC1
activity change, negative = inhibition (at 120 µM (top of the series)): 0.941% (inactive)

Cc1ccccc1-c1ccc([C@@H]2[C@@H](CO)N3CCCCN(S(=O)(=O)c4ccc(F)cc4)C[C@H]23)cc1
activity change, negative = inhibition (at 120 µM (top of the series)): -1.33% (inactive)

Cc1ccccc1S(=O)(=O)N1CC[C@@H]2[C@@H](CO)Nc3ccc(-c4ccc(F)cc4)cc3[C@@H]21
activity change, negative = inhibition (at 120 µM (top of the series)): 46.1% (inactive)

COc1ccc(NC(=O)N2CC[C@H]3[C@@H]2c2cc(Br)ccc2N(C)[C@H]3CO)cc1
activity change, negative = inhibition (at 135 µM (top of the series)): 4.83% (inactive)

COc1ccc2c3c([nH]c2c1)[C@H](CO)N(C(=O)c1ccccc1)CC31CN(C(=O)Nc2cccc(F)c2)C1
activity change, negative = inhibition (at 120 µM (top of the series)): 39% (inactive)

Cc1noc(C)c1NC(=O)N(C)C[C@H]1Oc2ccc(NC(=O)Nc3ccc4c(c3)OCO4)cc2CC(=O)N([C@H](C)CO)C[C@@H]1C
activity change, negative = inhibition (at 120 µM (top of the series)): -2.04% (inactive)

C/C=C/c1ccc([C@H]2[C@@H](CO)N(C(=O)CC)[C@H]2CNC(=O)CC)cc1
activity change, negative = inhibition (at 135 µM (top of the series)): -4.24% (inactive)

O=C(C1CCCCC1)N1CC(=O)N2[C@@H](CO)[C@H](c3ccc(C#CCc4ccccc4)cc3)[C@@H]2C1
activity change, negative = inhibition (at 60 µM (top of the series)): 21.9% (inactive)
